{"source": "patent US20100234377A1", "about": "(priority 2007, published 2010)", "biological_target": "T1, human Prostaglandin D Synthase (GST2) (Homo sapiens, UniProt O60760)", "T1 construct": "the open reading frame of human Prostaglandin D Synthase was amplified from cDNA; made in house; host or cells: E. coli TOP10F'", "T1 sequence (O60760 whole entry)": "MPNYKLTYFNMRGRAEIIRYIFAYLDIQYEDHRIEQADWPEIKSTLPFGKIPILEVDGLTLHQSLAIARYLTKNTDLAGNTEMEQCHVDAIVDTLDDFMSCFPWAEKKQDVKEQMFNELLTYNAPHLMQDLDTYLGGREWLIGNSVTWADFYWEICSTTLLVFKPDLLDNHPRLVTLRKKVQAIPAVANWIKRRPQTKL", "experiment": "Homogeneous biochemical assay of human Prostaglandin D Synthase (GST2) based on its glutathion-S-transferase activity (GSH conjugation to monochlorobimane, fluorescence)", "conditions": "given beside the compound name in Examples 1 to 167; read-out: Potency Range (GST2 IC50)", "from_the_text": "Homogeneous, Biochemical Assay Monitoring the Activity of Human Prostaglandin D Synthase Based on the Glutathion-S-Transferase Activity of the Enzyme\nProstaglandin D2 synthesis by Prostaglandin D synthase (GST2) requires transfer of Glutathion (GSH) to the substrate, Prostaglandin H2. […] Since the Prostaglandin D2 synthesis is absolutely dependent on the GST activity of the enzyme, assays monitoring the GST activity should allow to identify specific inhibitors of Prostaglandin D2 synthetic activity. The assay principle used is based on enzymatic conjugation of GSH to Monochlorobimane (MCB), that becomes fluorescent upon this chemical modification. Therefore, the enzymatic reaction can be monitored by total fluorescence measurement.\nIn brief, the open reading frame of human Prostaglandin D Synthase was amplified from cDNA using the primer pair:\nThis construct allows prokaryotic expression of Prostaglandin D Synthase as fusion protein with a N-terminal hexa-histidine tag, referred to as NHis-Prostaglandin D Synthase.\nExpression of NHis-Prostaglandin D Synthase was in E. coli TOP10F′ (Invitrogen, Germany, cat. no. C3030-03). […] When the culture had reached a density corresponding to an A600 of 0.6, an equal volume of room temperature LB/ampicillin was added. […] Cells harvested by centrifugation were resuspended in 50 mM tris(hydroxymethyl)aminomethane hydrochloride pH 7.5 (Tris/HCl, Sigma, cat. no. T5941).\nRemoval of unbound material was with 100 ml lysis buffer. Elution was with 50 ml of 50 mM Tris/HCl pH 7.5, 300 mM imidazol (Sigma, Germany, cat. no. I2399)/HCl pH 7.5). […] Aliquots were shock frozen in liquid nitrogen and stored at −80° C.\nAll assay components were diluted in reaction buffer, 50 mM MES/KOH (pH 6.1), 0.7 mM GSH (Sigma, G4251), 2 mM MgCl2 (Sigma, M2670), 0.05% Pluronic F127 (Sigma, P2443), and stored on ice prior to use. Compounds were diluted in 90% DMSO yielding final assay concentrations from the picomolar to three digit micromolar range.\nTotal fluorescent measurement was carried out with excitation and emission wavelength of 390 and 460 nm, respectively (BMG Fluostar Optima)."}
{"smiles": "O=C(Nc1ccc(Br)c(-c2ccncc2)c1)N1CCN(C(=O)c2cccc(F)c2)CC1", "note": "[Compound 43, 4-(3-Fluoro-benzoyl)-piperazine-1-carboxylic acid (4-bromo-3-pyridin-4-yl-phenyl)-amide]", "values": [{"measurement": "IC50", "value": "11 to 100", "unit": "nM"}]}
{"smiles": "O=C(Nc1ccc(Oc2cccnc2)nc1)N1CCN(C(=O)c2cccc(F)c2)CC1", "note": "[Compound 44, 4-(3-Fluoro-benzoyl)-piperazine-1-carboxylic acid [6-(pyridin-3-yloxy)-pyridin-3-yl]-amide]", "values": [{"measurement": "IC50", "value": "101 to 1000", "unit": "nM"}]}
{"smiles": "O=C(Nc1cnc2ccccc2c1)N1CCN(C(=O)c2cccc(F)c2)CC1", "note": "[Compound 45, 4-(3-Fluoro-benzoyl)-piperazine-1-carboxylic acid quinolin-3-ylamide]", "values": [{"measurement": "IC50", "value": "101 to 1000", "unit": "nM"}]}
{"smiles": "CC(C)(C)OC(=O)N1CCN(c2ccc(NC(=O)N3CCN(C(=O)c4cccc(F)c4)CC3)cc2F)CC1", "note": "[Compound 46, 4-(2-Fluoro-4-{[4-(3-fluoro-benzoyl)-piperazine-1-carbonyl]-amino}-phenyl)-piperazine-1-carboxylic acid tert-butyl ester]", "values": [{"measurement": "IC50", "value": "11 to 100", "unit": "nM"}]}
{"smiles": "O=C(Nc1ccc(N2CCOCC2)c(F)c1)N1CCN(C(=O)c2cc(F)ccc2F)CC1", "note": "[Compound 47, 4-(2,5-Difluoro-benzoyl)-piperazine-1-carboxylic acid (3-fluoro-4-morpholin-4-yl-phenyl)-amide]", "values": [{"measurement": "IC50", "value": "101 to 1000", "unit": "nM"}]}
{"smiles": "CC(C)(C)OC(=O)N1CCN(c2ccc(NC(=O)N3CCN(C(=O)c4cc(F)ccc4F)CC3)cc2F)CC1", "note": "[Compound 48, 4-(4-{[4-(2,5-Difluoro-benzoyl)-piperazine-1-carbonyl]-amino}-2-fluoro-phenyl)-piperazine-1-carboxylic acid tert-butyl ester]", "values": [{"measurement": "IC50", "value": "101 to 1000", "unit": "nM"}]}
{"smiles": "O=C(Nc1ccc([N+](=O)[O-])cc1)N1CCN(C(=O)c2cc(F)ccc2F)CC1", "note": "[Compound 49, 4-(2,5-Difluoro-benzoyl)-piperazine-1-carboxylic acid (4-nitro-phenyl)-amide]", "values": [{"measurement": "IC50", "value": "101 to 1000", "unit": "nM"}]}
{"smiles": "CCCCNC(=O)N1CCN(c2ccc(NC(=O)N3CCN(C(=O)c4cccc(F)c4)CC3)cc2F)CC1", "note": "[Compound 53]", "values": [{"measurement": "IC50", "value": "11 to 100", "unit": "nM"}]}
{"smiles": "O=C(Nc1ccc(N2CCN(C(=O)NC3CCCC3)CC2)c(F)c1)N1CCN(C(=O)c2cccc(F)c2)CC1", "note": "[Compound 54, N-{4-[4-(cyclopentylcarbamoyl)piperazin-1-yl]-3-fluorophenyl}-4-(3-fluorobenzoyl)piperazine-1-carboxamide]", "values": [{"measurement": "IC50", "value": "11 to 100", "unit": "nM"}]}
{"smiles": "CC(C)NC(=O)N1CCN(c2ccc(NC(=O)N3CCN(C(=O)c4cc(F)ccc4F)CC3)cc2F)CC1", "note": "[Compound 55, 4-(2,5-difluorobenzoyl)-N-{3-fluoro-4-[4-(isopropylcarbamoyl)piperazin-1-yl]phenyl}piperazine-1-carboxamide]", "values": [{"measurement": "IC50", "value": "101 to 1000", "unit": "nM"}]}
{"smiles": "CC(C)(C)C(=O)N1CCN(c2ccc(NC(=O)N3CCN(C(=O)c4cccc(F)c4)CC3)cc2F)CC1", "note": "[Compound 56, 4-(3-Fluoro-benzoyl)-piperazine-1-carboxylic acid {4-[4-(2,2-dimethyl-propionyl)-piperazin-1-yl]-3-fluoro-phenyl}-amide]", "values": [{"measurement": "IC50", "value": "11 to 100", "unit": "nM"}]}
{"smiles": "CC(C)C(=O)N1CCN(c2ccc(NC(=O)N3CCN(C(=O)c4cccc(F)c4)CC3)cc2F)CC1", "note": "[Compound 57, 4-(3-Fluoro-benzoyl)-piperazine-1-carboxylic acid [3-fluoro-4-(4-isobutyryl-piperazin-1-yl)-phenyl]-amide]", "values": [{"measurement": "IC50", "value": "11 to 100", "unit": "nM"}]}
{"smiles": "CC(C)C(=O)N1CCN(c2ccc(NC(=O)N3CCN(C(=O)c4cc(F)ccc4F)CC3)cc2F)CC1", "note": "[Compound 58, 4-(2,5-Difluoro-benzoyl)-piperazine-1-carboxylic acid [3-fluoro-4-(4-isobutyryl-piperazin-1-yl)-phenyl]-amide]", "values": [{"measurement": "IC50", "value": "101 to 1000", "unit": "nM"}]}
{"smiles": "CC(=O)N1CCN(c2ccc(NC(=O)N3CCN(C(=O)c4cccc(F)c4)CC3)cc2)CC1", "note": "[Compound 61]", "values": [{"measurement": "IC50", "value": "101 to 1000", "unit": "nM"}]}
{"smiles": "Cc1cc(NC(=O)N2CCN(C(=O)c3cccc(F)c3)CC2)no1", "note": "[Compound 62, 4-(3-Fluoro-benzoyl)-piperazine-1-carboxylic acid (5-methyl-isoxazol-3-yl)-amide]", "values": [{"measurement": "IC50", "value": "101 to 1000", "unit": "nM"}]}
{"smiles": "O=C(Nc1nc2ccccc2[nH]1)N1CCN(C(=O)c2cccc(F)c2)CC1", "note": "[Compound 64, 4-(3-Fluoro-benzoyl)-piperazine-1-carboxylic acid (1H-benzoimidazol-2-yl)-amide]", "values": [{"measurement": "IC50", "value": "101 to 1000", "unit": "nM"}]}
{"smiles": "O=C(Nc1nc2ccccc2s1)N1CCN(C(=O)c2cccc(F)c2)CC1", "note": "[Compound 65, 4-(3-Fluoro-benzoyl)-piperazine-1-carboxylic acid benzothiazol-2-ylamide]", "values": [{"measurement": "IC50", "value": "11 to 100", "unit": "nM"}]}
{"smiles": "O=C(Nc1nc2ccc(F)cc2s1)N1CCN(C(=O)c2cccc(F)c2)CC1", "note": "[Compound 66, 4-(3-Fluoro-benzoyl)-piperazine-1-carboxylic acid (6-fluoro-benzothiazol-2-yl)-amide]", "values": [{"measurement": "IC50", "value": "11 to 100", "unit": "nM"}]}
{"smiles": "O=C(Nc1nc2ccc(OC(F)(F)F)cc2s1)N1CCN(C(=O)c2cccc(F)c2)CC1", "note": "[Compound 67, 4-(3-Fluoro-benzoyl)-piperazine-1-carboxylic acid (6-trifluoromethoxy-benzothiazol-2-yl)-amide]", "values": [{"measurement": "IC50", "value": "11 to 100", "unit": "nM"}]}
{"smiles": "O=C(Nc1nc2ccc(Br)cc2s1)N1CCN(C(=O)c2cccc(F)c2)CC1", "note": "[Compound 68, 4-(3-Fluoro-benzoyl)-piperazine-1-carboxylic acid (6-bromo-benzothiazol-2-yl)-amide]", "values": [{"measurement": "IC50", "value": "1 to 10", "unit": "nM"}]}
{"smiles": "O=C(Nc1nc(-c2ccccc2)ns1)N1CCN(C(=O)c2cccc(F)c2)CC1", "note": "[Compound 70, 4-(3-Fluoro-benzoyl)-piperazine-1-carboxylic acid (3-phenyl-[1,2,4]thiadiazol-5-yl)-amide]", "values": [{"measurement": "IC50", "value": "11 to 100", "unit": "nM"}]}
{"smiles": "O=C(Nc1nnc(-c2ccncc2)s1)N1CCN(C(=O)c2cccc(F)c2)CC1", "note": "[Compound 71, 4-(3-Fluoro-benzoyl)-piperazine-1-carboxylic acid (5-pyridin-4-yl[1,3,4]thiadiazol-2-yl)-amide]", "values": [{"measurement": "IC50", "value": "11 to 100", "unit": "nM"}]}
{"smiles": "O=C(Nc1nnc(-c2ccccc2)o1)N1CCN(C(=O)c2cccc(F)c2)CC1", "note": "[Compound 72, 4-(3-Fluoro-benzoyl)-piperazine-1-carboxylic acid (5-phenyl-[1,3,4]oxadiazol-2-yl)-amide]", "values": [{"measurement": "IC50", "value": "11 to 100", "unit": "nM"}]}
{"smiles": "O=C(Nc1nc(-c2ccccn2)cs1)N1CCN(C(=O)c2cccc(F)c2)CC1", "note": "[Compound 73, 4-(3-Fluoro-benzoyl)-piperazine-1-carboxylic acid (4-pyridin-2-yl-thiazol-2-yl)-amide]", "values": [{"measurement": "IC50", "value": "11 to 100", "unit": "nM"}]}
{"smiles": "O=C(Nc1nc(-c2cccnc2)cs1)N1CCN(C(=O)c2cccc(F)c2)CC1", "note": "[Compound 74, 4-(3-Fluoro-benzoyl)-piperazine-1-carboxylic acid (4-pyridin-3-yl-thiazol-2-yl)-amide]", "values": [{"measurement": "IC50", "value": "11 to 100", "unit": "nM"}]}
{"smiles": "O=C(Nc1nc(-c2ccncc2)cs1)N1CCN(C(=O)c2cccc(F)c2)CC1", "note": "[Compound 75, 4-(3-Fluoro-benzoyl)-piperazine-1-carboxylic acid (4-pyridin-4-yl-thiazol-2-yl)-amide]", "values": [{"measurement": "IC50", "value": "101 to 1000", "unit": "nM"}]}
{"smiles": "Cc1nc(-c2cccc(NC(=O)N3CCN(C(=O)c4cccc(F)c4)CC3)c2)cs1", "note": "[Compound 77, 4-(3-Fluoro-benzoyl)-piperazine-1-carboxylic acid [3-(2-methyl-thiazol-4-yl)-phenyl]-amide]", "values": [{"measurement": "IC50", "value": "101 to 1000", "unit": "nM"}]}
{"smiles": "Cc1nccc(-c2cccc(NC(=O)N3CCN(C(=O)c4cccc(F)c4)CC3)c2)n1", "note": "[Compound 78, 4-(3-Fluoro-benzoyl)-piperazine-1-carboxylic acid [3-(2-methyl-pyrimidin-4-yl)-phenyl]-amide]", "values": [{"measurement": "IC50", "value": "11 to 100", "unit": "nM"}]}
{"smiles": "Cc1cc2nc(NC(=O)N3CCN(C(=O)c4cccc(F)c4)CC3)sc2cc1C", "note": "[Compound 79, 4-(3-Fluoro-benzoyl)-piperazine-1-carboxylic acid (5,6-dimethyl-benzothiazol-2-yl)-amide]", "values": [{"measurement": "IC50", "value": "1 to 10", "unit": "nM"}]}
{"smiles": "Cc1ccc2nc(NC(=O)N3CCN(C(=O)c4cccc(F)c4)CC3)sc2c1", "note": "[Compound 80, 4-(3-Fluoro-benzoyl)-piperazine-1-carboxylic acid (6-methyl-benzothiazol-2-yl)-amide]", "values": [{"measurement": "IC50", "value": "1 to 10", "unit": "nM"}]}
{"smiles": "COc1ccc2nc(NC(=O)N3CCN(C(=O)c4cccc(F)c4)CC3)sc2c1", "note": "[Compound 81, 4-(3-Fluoro-benzoyl)-piperazine-1-carboxylic acid (6-methoxy-benzothiazol-2-yl)-amide]", "values": [{"measurement": "IC50", "value": "1 to 10", "unit": "nM"}]}
{"smiles": "O=C(Nc1nc2ccc(Cl)cc2s1)N1CCN(C(=O)c2cccc(F)c2)CC1", "note": "[Compound 82, 4-(3-Fluoro-benzoyl)-piperazine-1-carboxylic acid (6-chloro-benzothiazol-2-yl)-amide]", "values": [{"measurement": "IC50", "value": "1 to 10", "unit": "nM"}]}
{"smiles": "CCOC(=O)c1ccc2nc(NC(=O)N3CCN(C(=O)c4cccc(F)c4)CC3)sc2c1", "note": "[Compound 83, 2-{[4-(3-Fluoro-benzoyl)-piperazine-1-carbonyl]-amino}-benzothiazole-6-carboxylic acid ethyl ester]", "values": [{"measurement": "IC50", "value": "11 to 100", "unit": "nM"}]}
